The values below come from patent US20020019527A1 (priority 2000, published 2002).

Where a name gives a salt, the structure may show the parent alone.

T1 sequence (P49355 whole entry, one chain of several): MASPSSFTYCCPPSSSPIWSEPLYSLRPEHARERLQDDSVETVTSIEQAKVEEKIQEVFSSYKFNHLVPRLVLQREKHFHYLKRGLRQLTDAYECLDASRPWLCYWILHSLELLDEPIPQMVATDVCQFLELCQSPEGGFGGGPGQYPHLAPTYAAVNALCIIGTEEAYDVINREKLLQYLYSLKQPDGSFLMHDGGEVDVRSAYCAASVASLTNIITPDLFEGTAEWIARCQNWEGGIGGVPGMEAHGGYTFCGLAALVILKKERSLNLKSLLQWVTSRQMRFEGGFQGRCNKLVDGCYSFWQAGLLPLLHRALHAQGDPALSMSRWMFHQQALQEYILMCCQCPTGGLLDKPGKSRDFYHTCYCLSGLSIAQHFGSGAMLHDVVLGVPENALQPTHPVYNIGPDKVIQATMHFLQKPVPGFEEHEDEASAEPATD

The first assay addresses T1, Farnesyltransferase (FTase) (Bos taurus, UniProt P29702+P49355).
T1 construct: precipitation from a beef brain homogenate; from tissue; host or cells: bovine brain
The assay can be described thus: Farnesyltransferase inhibition (scintillation proximity assay, [3H]-FPP / biotin-K-ras peptide). It counts as biochemical, bovine.
Conditions: not given
The method, boiled down:
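Read-out: [3H]-FPP prenylation of a biotinylated K-ras peptide by SPA, measured 1 h after quenching. Enzyme: FTase purified from bovine brain (ammonium sulfate cut, DEAE Sepharose), free of GGTase I and II. Test compounds in ethanol, diluted 10-fold into the reaction.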
In general terms: Scintillation proximity formats need no separation of bound from free tracer.
As for `Cc1ccccc1-c1cc(C(OCc2cc([N+](=O)[O-])cc3c2OCOC3)c2cncn2C)ccc1C#N.Cl` (centres unmarked) [Example 168], the % Inhibition – broadly, the share of the control response that was lost under treatment – at 10^−6M is listed as 96%.

On to `Cc1ccccc1-c1cc(C(OCc2noc(-c3cccc(C(F)(F)F)c3)n2)c2cncn2C)ccc1C#N.Cl` (centres unmarked) [Example 169, 2′-methyl-5-((1,1-methyl-1H-imidazol-5-yl)((5-(3-(trifluoromethyl)phenyl)-1,2,4-oxadiazol-3-yl)methoxy)methyl)(1,1′-biphenyl)-2-carbonitrile hydrochloride], for which the “% Inhibition at 10^−6M” value is listed as 70%.

With `Cc1ccccc1-c1cc(C(OCc2c(C)ccc3ccccc23)c2cncn2C)ccc1C#N.Cl` (centres unmarked) [Example 178], the “% Inhibition at 10^−6M” value came to 90%.

As to `Cc1ccccc1-c1cc(C(OCc2c(C)c(C)cc(C)c2C)c2cncn2C)ccc1C#N.Cl` (centres unmarked) [Example 179], the “% Inhibition at 10^−6M” value is recorded as 93%.

Turning to `Cc1ccccc1-c1cc(C(OCc2ccc(OC(F)(F)F)cc2)c2cncn2C)ccc1C#N.Cl` (centres unmarked) [Example 180], the “% Inhibition at 10^−6M” value came to 95%.

The assay is the same for the next values; noted with them: compound at 10^−6 M; bovine FTase, 37° C., 30 minutes.
With `Cc1ccccc1-c1cc(C(OCc2csc(-c3ccc(Cl)cc3)n2)c2cncn2C)ccc1C#N` (centres unmarked) [Example 162, 5-(((2-(4-chlorophenyl)-1,3-thiazol-4-yl)methoxy)(1-methyl-1H-imidazol-5-yl)methyl)-2′-methyl(1,1′-biphenyl)-2-carbonitrile hydrochloride], the inhibition (usually the relative decrease from the control value, in per cent) at 1 µM worked out at 94%.

In the case of `COc1ccccc1-c1nc(COC(c2ccc(C#N)c(-c3ccccc3C)c2)c2cncn2C)no1` (centres unmarked) [Example 163, 5-(((5-(2-methoxyphenyl)-1,2,4-oxadiazol-3-yl)methoxy)(1-methyl-1H-imidazol-5-yl)methyl)-2′-methyl(1,1-biphenyl)-2-carbonitrile hydrochloride], 1 µM produced 84% inhibition.

`Cc1ccccc1-c1cc(C(OCc2ccc(Cl)cc2[N+](=O)[O-])c2cncn2C)ccc1C#N` (centres unmarked) [Example 164, 5-(((4-chloro-2-nitrobenzyl)oxy)(1-methyl-1H-imidazol-5-yl)methyl)-2′-methyl(1,1′-biphenyl)-2-carbonitrile hydrochloride]: testing at 1 µM gave an inhibition of 99%.

Take `COc1ccc(C(C)=O)cc1COC(c1ccc(C#N)c(-c2ccccc2C)c1)c1cncn1C` (centres unmarked) [Example 170, 5-(((5-acetyl-2-methoxybenzyl)oxy)(1-methyl-1H-imidazol-5-yl)methyl)-2′-methyl(1,1′-biphenyl)-2-carbonitrile hydrochloride]: the inhibition at 1 µM is 85%.

Regarding `Cc1ccccc1-c1cc(C(OCc2noc(-c3ccccc3)n2)c2cncn2C)ccc1C#N` (centres unmarked) [Example 171, 2′-methyl-5-((1-methyl-1H-imidazol-5-yl)((5-phenyl-1,2,4-oxadiazol-3-yl)methoxy)methyl)(1,1′-biphenyl)-2-carbonitrile hydrochloride], 1 µM produced 75% inhibition.

`COc1ccc(-c2nc(COC(c3ccc(C#N)c(-c4ccccc4C)c3)c3cncn3C)no2)cc1` (centres unmarked) [Example 172, 5-(((5-(4-methoxyphenyl)-1,2,4-oxadiazol-3-yl)methoxy)(1-methyl-1H-imidazol-5-yl)methyl)-2′-methyl(1,1′-biphenyl)-2-carbonitrile hydrochloride] had an inhibition at 1 µM of 85%.

In turn, `COc1cccc(-c2nc(COC(c3ccc(C#N)c(-c4ccccc4C)c3)c3cncn3C)no2)c1` (centres unmarked) [Example 173, 5-(((5-(3-methoxyphenyl)-1,2,4-oxadiazol-3-yl)methoxy)(1-methyl-1H-imidazol-5-yl)methyl)-2′-methyl(1,1′-biphenyl)-2-carbonitrile hydrochloride] had an inhibition at 1 µM of 80%.

In turn, `Cc1ccccc1-c1cc(C(OCc2csc(-c3ccc(C(F)(F)F)cc3)n2)c2cncn2C)ccc1C#N` (centres unmarked) [Example 175, 2′-methyl-5-((1-methyl-1H-imidazol-5-yl)((2-(4-(trifluoromethyl)phenyl)-1,3-thiazol-4-yl)methoxy)methyl)(1,1′-biphenyl)-2-carbonitrile hydrochloride] displayed an inhibition at 1 µM of 75%.

`Cc1cc(COC(c2ccc(C#N)c(-c3ccccc3C)c2)c2cncn2C)no1` (centres unmarked) [Example 177, 2′-methyl-5-((1-methyl-1H-imidazol-5-yl)((5-methyl-3-isoxazolyl)methoxy)methyl)(1,1′-biphenyl)-2-carbonitrile hydrochloride]: the inhibition at 1 µM was 77%.

As to `Cc1ccccc1-c1cc(C(OCc2cnc(Cl)c(Cl)c2)c2cncn2C)ccc1C#N` (centres unmarked) [Example 181, 5-(((5,6-dichloro-3-pyridinyl)methoxy)(1-methyl-1H-imidazol-5-yl)methyl)-2′-methyl(1,1′-biphenyl)-2-carbonitrile hydrochloride], the inhibition at 1 µM is 93%.

`Cc1ccccc1-c1cc(C(OCc2ncc(C(F)(F)F)cc2Cl)c2cncn2C)ccc1C#N` (centres unmarked) [Example 182, 5-(((3-chloro-5-(trifluoromethyl)-2-pyridinyl)methoxy)(1-methyl-1H-imidazol-5-yl)methyl)-2′-methyl(1,1′-biphenyl)-2-carbonitrile hydrochloride] came in with an inhibition at 1 µM of 89%.

In the case of `Cc1ccccc1-c1cc(C(OCc2ccc3ccccc3c2)c2cncn2C)ccc1C#N` (centres unmarked) [Example 183, 2′-methyl-5-((1-methyl-1H-imidazol-5-yl)(2-naphthylmethoxy)methyl)(1,1′-biphenyl)-2-carbonitrile hydrochloride], testing at 1 µM gave an inhibition of 90%.

Consider `Cc1ccccc1-c1cc(C(OCc2cccc(Br)c2)c2cncn2C)ccc1C#N` (centres unmarked) [Example 184, 5-(((3-bromobenzyl)oxy)(1-methyl-1H-imidazol-5-yl)methyl)-2′-methyl(1,1′-biphenyl)-2-carbonitrile hydrochloride], for which the inhibition at 1 µM is 95%.

Turning to `Cc1ccccc1-c1cc(C(OCc2ccccc2Br)c2cncn2C)ccc1C#N` (centres unmarked) [Example 185, 5-(((2-bromobenzyl)oxy)(1-methyl-1H-imidazol-5-yl)methyl)-2′-methyl(1,1′-biphenyl)-2-carbonitrile hydrochloride], the inhibition at 1 µM is 85%.

In turn, `Cc1ccccc1-c1cc(C(OCc2c(F)cccc2F)c2cncn2C)ccc1C#N` (centres unmarked) [Example 186, 5-(((2,6-difluorobenzyl)oxy)(1-methyl-1H-imidazol-5-yl)methyl)-2′-methyl(1,1′-biphenyl)-2-carbonitrile hydrochloride] yielded an inhibition at 1 µM of 85%.

In turn, `Cc1ccccc1-c1cc(C(OCc2ccc(C(F)(F)F)cc2F)c2cncn2C)ccc1C#N` (centres unmarked) [Example 187, 5-(((2-fluoro-4-(trifluoromethyl)benzyl)oxy)(1-methyl-1H-imidazol-5-yl)methyl)-2′-methyl(1,1′-biphenyl)-2-carbonitrile hydrochloride] showed an inhibition at 1 µM of 93%.

With `Cc1ccccc1-c1cc(C(OCc2ccc(C(N)=O)cc2)c2cncn2C)ccc1C#N` (centres unmarked) [Example 188, 4-(((6-cyano-2′-methyl(1,1′-biphenyl)-3-yl)(1-methyl-1H-imidazol-5-yl)methoxy)methyl)benzamide], the inhibition at 1 µM amounted to 92%.

On to `CNC(=O)c1ccc(COC(c2ccc(C#N)c(-c3ccccc3C)c2)c2cncn2C)cc1` (centres unmarked) [Example 189, 4-(((6-cyano-2′-methyl(1,1′-biphenyl)-3-yl)(1-methyl-1H-imidazol-5-yl)methoxy)methyl)-N-methylbenzamide], for which the inhibition at 1 µM was determined as 95%.

For `Cc1ccccc1-c1cc(C(OCc2ccc(C(=O)N(C)C)cc2)c2cncn2C)ccc1C#N` (centres unmarked) [Example 190, 4-(((6-cyano-2′-methyl(1,1′-biphenyl)-3-yl)(1-methyl-1H-imidazol-5-yl)methoxy)methyl)-N,N-dimethylbenzamide], testing at 1 µM gave an inhibition of 90%.

Consider `Cn1cncc1CN(Cc1ccc(C#N)cc1)C(=O)c1ccc(C#N)c(-c2cccc3ccccc23)c1` [Example 191, 4-cyano-N-(4-cyanobenzyl)-N-((1-methy-1H-imidazol-5-yl)methyl)-3-(1-naphthyl)benzamide], for which the “% Inhibition at 10^−6M” value is 99%.

For the molecule `Cn1cncc1CN(Cc1ccc(C(=O)O)cc1)Cc1ccc(C#N)c(-c2cccc3ccccc23)c1` [Example 193, 4-(((4-cyano-3-(1-naphthyl)benzyl)((1-methyl-1H-imidazol-5-yl)methyl)amino)methyl)benzoic acid dihydrochloride], testing at 1 µM gave an inhibition of 91%.

The molecule `CC(=O)Nc1ccc(CN(Cc2ccc(C#N)c(-c3cccc4ccccc34)c2)Cc2cncn2C)cc1` [Example 194, N-(4-(((4-cyano-3-(1-naphthyl)benzyl)((1-methyl-1H-imidazol-5-yl)methyl)amino)methyl)phenyl)acetamide dihydrochloride] had an inhibition at 1 µM of 97%.

Turning to `Cn1cncc1CN(Cc1ccc(S(C)(=O)=O)cc1)Cc1ccc(C#N)c(-c2cccc3ccccc23)c1` [Example 195, 4-((((1-methyl-1H-imidazol-5-yl)methyl)(4-(methylsulfonyl)benzyl)amino)methyl)-2-(1-naphthyl)benzonitrile dihydrochloride], the inhibition at 1 µM stood at 98%.

`Cn1cncc1CN(Cc1ccc(C#N)c(-c2cccc3ccccc23)c1)C(=O)c1ccc(C#N)cc1` [Example 196, 4-cyano-N-(4-cyano-3-(1-naphthyl)benzyl)-N-((1-methyl-1H-imidazol-5-yl)methyl)benzamide] displayed an inhibition at 1 µM of 90%.

As for `Cn1cncc1CN(Cc1ccc(C#N)c(-c2cccc3ccccc23)c1)C(=O)c1ccc(Cl)c(Cl)c1` [Example 197, 3,4-dichloro-N-(4-cyano-3-(1-naphthyl)benzyl)-N-((1-methyl-1H-imidazol-5-yl)methyl)benzamide], testing at 1 µM gave an inhibition of 93%.

`Cn1cncc1CN(Cc1ccc(C#N)c(-c2cccc3ccccc23)c1)C(=O)c1ccc(Cl)c(F)c1` [Example 198, 4-chloro-N-(4-cyano-3-(1-naphthyl)benzyl)-3-fluoro-N-((1-methyl-1H-imidazol-5-yl)methyl)benzamide] had an inhibition at 1 µM of 94%.

For the molecule `Cn1cncc1CN(Cc1ccc(C#N)c(-c2cccc3ccccc23)c1)C(=O)c1cnc(Cl)c(Cl)c1` [Example 199, 5,6-dichloro-N-(4-cyano-3-(1-naphthyl)benzyl)-N-((1-methyl-1H-imidazol-5-yl)methyl)nicotinamide], the inhibition at 1 µM was 89%.
